The numbers were not newly measured in patent US9788539B2, “Platelet protection solution having beta-galactosidase and sialidase inhibitors” (Velico Medical, Inc., priority 2011, dated 2017), which cites them from elsewhere.

This data set addresses viral, bacterial and mammalian sialidases. The following applies: cited from earlier work.

Turning to `CC(=O)NC1C(O)C=C(C(=O)O)OC1C(O)C(O)CO` (stereo not shown) [DANA], the Ki entry is on record as “low μM range”.
